One assay addresses human TREX1 (Homo sapiens (Human), UniProt Q9NSU2). Put plainly: TREX1 Exonuclease Assay (human enzyme). Format: biochemical. The settings on record: human TREX1 0.5 nM, FAM/BHQ1-labeled DNA oligonucleotide. The procedure: (§1) The TREX1 Exonuclease assay is an exemplary in vitro assay for measuring the activity of the TREX1 inhibitors of the present invention. In this assay, TREX1 exonuclease activity was evaluated by measuring the increase in fluorescence resulting from TREX1-catalyzed removal of a quencher from the 3′ end of a FAM-labeled DNA oligonucleotide (5′FAM-CCA CGA GAG CGT-BHQ1-3′). The assay was conducted using Wild Type (WT) human or murine TREX1 enzyme constructs corresponding to amino acids 55-297 of UniProt ID Q9NSU2-1 (SEQ ID NO: 1), or amino acids 1-242 of UniProt ID Q91XB0-1 (SEQ ID NO: 2), respectively. See, e.g., Example A.
(§2) For human TREX1, the nucleotide sequence of the gene construct was codon optimized for expression in the bacterial host. The sequence was incorporated into the pMAL-c5e vector (NEB) downstream of a solubility-promoting MBP (maltose binding protein) fusion partner. The fusion protein product was expressed in E. coli strain BL21 (DE3) (Millipore) and purified in a series of chromatographic steps. Initial steps were conducted using a dextrin sepharose affinity column followed by a Q-sepharose ion exchange column (both GE Healthcare). After the second column the MBP partner was removed by incubation with enterokinase (NEB). Further purification was carried out with the second application of a Q-sepharose column followed by a Superdex 75 (GE Healthcare) size exclusion column. Finally, a heparin sepharose column (GE Healthcare) was applied to remove contaminating nucleotides. Similar methods were used in the preparation of the murine TREX1 enzyme and are described in Example B set forth below.
(§3) To evaluate the effect of compounds on TREX1 activity, test compounds were serially diluted (11-point, 3-fold) from 10 mM stock solutions and delivered to 384-well low-volume assay plates in 80 nL DMSO using an acoustic dispenser. Next, 4 μL of human TREX1 (0.5 nM), or murine TREX1 (1 nM), diluted in assay buffer (20 mM Tris pH 7.5, 5 mM MgCl2, 100 μg/mL BSA, 0.002% Triton X-100, 2 mM DTT), was added to the assay plate. After incubating for 30 minutes, 4 μL of labeled DNA oligonucleotide (500 nM) in assay buffer was added to initiate TREX1 exonuclease activity. The reaction was allowed to proceed for 45 minutes at room temperature prior to the addition of 4 μL of 150 mM EDTA to halt TREX1 activity. Assay plates were equilibrated for an additional 30 minutes and read on an EnVision Plate Reader (Perkin Elmer) to measure fluorescence emission at 535 nm following excitation at 485 nm. Fluorescence was plotted as a function of log molar compound concentration and fit to four-parameter dose-response equation to determine compound IC50.

Another assay concerns the target murine TREX1 (Mus musculus (Mouse), UniProt Q91XB0). In words: TREX1 Exonuclease Assay (murine enzyme). In kind it is biochemical. To be noted: murine TREX1 1 nM, FAM/BHQ1-labeled DNA oligonucleotide. How it is done: as §1, §2, §3

Structures can show the parent of a compound that is named as a salt.

The IC50 is the concentration needed to halve the response being measured. Read a high IC50 as lower potency.

Sequence of murine TREX1 (Q91XB0 1-242): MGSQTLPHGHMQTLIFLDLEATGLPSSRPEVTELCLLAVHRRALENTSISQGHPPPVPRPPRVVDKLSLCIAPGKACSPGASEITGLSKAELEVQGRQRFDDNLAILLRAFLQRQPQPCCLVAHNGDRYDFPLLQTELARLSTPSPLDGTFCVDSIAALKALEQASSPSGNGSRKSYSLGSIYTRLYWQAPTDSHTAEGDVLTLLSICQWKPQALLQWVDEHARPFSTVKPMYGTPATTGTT
Sequence of human TREX1 (Q9NSU2 1-242): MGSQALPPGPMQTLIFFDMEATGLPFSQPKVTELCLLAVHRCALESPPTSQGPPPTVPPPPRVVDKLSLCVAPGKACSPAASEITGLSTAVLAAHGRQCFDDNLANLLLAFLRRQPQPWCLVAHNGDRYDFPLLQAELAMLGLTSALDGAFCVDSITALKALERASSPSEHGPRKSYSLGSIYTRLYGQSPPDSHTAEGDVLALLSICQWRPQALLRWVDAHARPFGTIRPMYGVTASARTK

Take `N[C@@H]1C[C@H]2C(=O)N([C@H](CCC(=O)O)C(=O)NCc3ccc(C(F)(F)F)cc3)CCC(CCc3ccccc3)N2C1` (single isomer, unassigned) [Example 2A]: the IC50 against human TREX1 and against murine TREX1 was 10 to 100 µM throughout.

Take `C[C@H](C(=O)NCc1ccc(C(F)(F)F)cc1)N1CCC(CCc2ccccc2)N2C[C@H](N)C[C@H]2C1=O` (stereo partly shown) [Example 5]: the IC50 at human TREX1 and against murine TREX1 was under 1 µM throughout.

With `CC(C)C[C@H](C(=O)NCc1ccc(C(F)(F)F)cc1)N1CCC(CCc2ccccc2)N2C[C@H](N)C[C@H]2C1=O` (stereo partly shown) [Example 6], the 50% inhibitory concentration (IC50) at human TREX1 and against murine TREX1 was under 1 µM throughout.

On to `CC(C)C[C@H](C(=O)N(C)Cc1ccc(C(F)(F)F)cc1)N1CCC(CCc2ccccc2)N2C[C@H](N)C[C@H]2C1=O` (stereo partly shown) [Example 7], for which the IC50 on human TREX1 and on murine TREX1 was 1 to 9.99 µM throughout.

`CC(C)C[C@H](C(=O)NCc1ccccc1)N1CCC(CCc2ccccc2)N2C[C@H](N)C[C@H]2C1=O` (stereo partly shown) [Example 8]: the IC50 lay in the range of 1 to 9.99 µM on human TREX1 and 10 to 100 µM on murine TREX1.

Turning to `Cc1ccc(CNC(=O)[C@@H](CC(C)C)N2CCC(CCc3ccccc3)N3C[C@H](N)C[C@H]3C2=O)cc1` (stereo partly shown) [Example 9], the IC50 at human TREX1 and against murine TREX1 was 1 to 9.99 µM each time.

As for `CC(C)C[C@H](C(=O)NCc1ccc(Cl)c(Cl)c1)N1CCC(Cc2ccccc2)N2C[C@H](N)C[C@H]2C1=O` (stereo partly shown) [Example 10], the IC50 against human TREX1 and against murine TREX1 was 1 to 9.99 µM in each case.

In the case of `CC(C)C[C@H](C(=O)NCc1ccc(Cl)c(Cl)c1)N1CCC(CCc2ccc(Cl)cc2)N2C[C@H](N)C[C@H]2C1=O` (stereo partly shown) [Example 11], the IC50 on human TREX1 was under 1 µM; on murine TREX1 it was 1 to 9.99 µM.

`CC(C)C[C@H](C(=O)NCC1CCCCC1)N1CCC(CCc2ccccc2)N2C[C@H](N)C[C@H]2C1=O` (stereo partly shown) [Example 12]: the IC50 on human TREX1 and on murine TREX1 was 10 to 100 µM in each case.

In the case of `CC(C)C[C@H](C(=O)NCc1ccc(Cl)c(Cl)c1)N1CCC(C)N2C[C@H](N)C[C@H]2C1=O` (stereo partly shown) [Example 13], the IC50 against human TREX1 and at murine TREX1 was 10 to 100 µM in each case.

`N[C@@H]1C[C@H]2C(=O)N([C@H](CCC(=O)O)C(=O)NCc3ccc(Cl)c(Cl)c3)CCC(CCc3ccccc3)N2C1` (stereo partly shown) [Example 14A]: the IC50 on human TREX1 and against murine TREX1 was 10 to 100 µM in each case.

In the case of `N[C@@H]1C[C@H]2C(=O)N([C@H](CCC(=O)O)C(=O)NCc3ccc(Cl)c(Cl)c3)CCC(COc3ccccc3)N2C1` (stereo partly shown) [Example 17], the IC50 against human TREX1 and at murine TREX1 was under 1 µM each time.

`CC(C)C[C@H](C(=O)NCc1ccc(Cl)c(Cl)c1)N1CCC(CSc2ccccc2)N2C[C@H](N)C[C@H]2C1=O` (stereo partly shown) [Example 18]: the IC50 at human TREX1 and at murine TREX1 was under 1 µM each time.

In the case of `CC(C)C[C@H](C(=O)NCc1ccc(Cl)c(Cl)c1)N1CCC(COc2ccccc2)N2C[C@H](N)C[C@H]2C1=O` (stereo partly shown) [Example 19], the IC50 against human TREX1 was under 1 µM; on murine TREX1, 1 to 9.99 µM.

Take `CC(=O)N[C@@H]1C[C@H]2C(=O)N([C@H](CC(C)C)C(=O)NCc3ccc(Cl)c(Cl)c3)CCC(CCc3ccccc3)N2C1` (stereo partly drawn) [Example 20, (2R)-2-((8R,9aS)-8-acetamido-1-oxo-5-phenethylhexahydro-1H-pyrrolo[1,2-a][1,4]diazepin-2(3H)-yl)-N-(3,4-dichlorobenzyl)-4-methylpentanamide HCl]: the figures for the IC50 on human TREX1 and against murine TREX1 were 1 to 9.99 µM and 10 to 100 µM, respectively.

With `CC(C)C[C@H](C(=O)NCc1ccc(Cl)c(Cl)c1)N1CCC(CCc2ccccc2)N2C[C@H](N(C)C)C[C@H]2C1=O` (stereo partly drawn) [Example 21, (2R)—N-(3,4-dichlorobenzyl)-2-((8R,9aS)-8-(dimethylamino)-1-oxo-5-phenethylhexahydro-1H-pyrrolo[1,2-a][1,4]diazepin-2(3H)-yl)-4-methylpentanamide HCl], the results for the IC50 at human TREX1 and against murine TREX1 were 10 to 100 µM and over 100 µM, respectively.

For `CC(C)C[C@H](C(=O)NCc1ccc(Cl)c(Cl)c1)N1CC(CCc2ccccc2)N2C[C@H](N)C[C@H]2C1=O` (stereo partly drawn) [Example 22, (2R)-2-((7R,8aS)-7-amino-1-oxo-4-phenethylhexahydropyrrolo[1,2-a]pyrazin-2(1H)-yl)-N-(3,4-dichlorobenzyl)-4-methylpentanamide.HCl], the IC50 on human TREX1 and against murine TREX1 was 10 to 100 µM throughout.

In the case of `CC(C)C[C@H](C(=O)NCCc1ccccc1)N1CCC(CCc2ccccc2)N2C[C@H](N)C[C@H]2C1=O` (stereo partly shown) [Example 23], the IC50 at human TREX1 fell in the range of 1 to 9.99 µM; on murine TREX1 it was 10 to 100 µM.

Regarding `CC(C)C[C@H](C(=O)N[C@H](C)c1ccccc1)N1CCC(CCc2ccccc2)N2C[C@H](N)C[C@H]2C1=O` (stereo partly shown) [Example 24], the IC50 against human TREX1 and against murine TREX1 was 10 to 100 µM throughout.

As to `CC(C)C[C@H](C(=O)N[C@@H](C)c1ccccc1)N1CCC(CCc2ccccc2)N2C[C@H](N)C[C@H]2C1=O` (stereo partly shown) [Example 25], the IC50 against human TREX1 and against murine TREX1 was 10 to 100 µM throughout.

With `CC(C)C[C@H](C(=O)NCc1cccc(Cl)c1)N1CCC(CCc2ccccc2)N2C[C@H](N)C[C@H]2C1=O` (stereo partly shown) [Example 26], the IC50 at human TREX1 is under 1 µM; against murine TREX1, 1 to 9.99 µM.

For the molecule `CC(C)C[C@H](C(=O)NCc1ccccc1Cl)N1CCC(CCc2ccccc2)N2C[C@H](N)C[C@H]2C1=O` (stereo partly shown) [Example 27], the IC50 against human TREX1 lay in the range of 1 to 9.99 µM; against murine TREX1, 10 to 100 µM.

In the case of `CC(C)C[C@H](C(=O)NCc1cnccn1)N1CCC(CCc2ccccc2)N2C[C@H](N)C[C@H]2C1=O` (stereo partly shown) [Example 28], the values for the IC50 at human TREX1 and on murine TREX1 were 1 to 9.99 µM and 10 to 100 µM, respectively.

`CC(C)C[C@H](C(=O)NCc1cscn1)N1CCC(CCc2ccccc2)N2C[C@H](N)C[C@H]2C1=O` (stereo partly shown) [Example 30]: the IC50 was 1 to 9.99 µM at human TREX1 and 10 to 100 µM at murine TREX1.

Consider `CC(C)C[C@H](C(=O)NCc1ccc(Cl)cc1Cl)N1CCC(CCc2ccccc2)N2C[C@H](N)C[C@H]2C1=O` (stereo partly shown) [Example 31], for which the half-maximal inhibitory concentration (IC50) is under 1 µM at human TREX1 and 1 to 9.99 µM on murine TREX1.

Take `CC(C)C[C@H](C(=O)NCc1ccc(C#N)cc1)N1CCC(CCc2ccccc2)N2C[C@H](N)C[C@H]2C1=O` (stereo partly shown) [Example 32]: the IC50 fell in the range of 1 to 9.99 µM against human TREX1 and 10 to 100 µM on murine TREX1.

`CC(C)C[C@H](C(=O)NCc1cc(Cl)cc(Cl)c1)N1CCC(CCc2ccccc2)N2C[C@H](N)C[C@H]2C1=O` (stereo partly shown) [Example 33]: the results for the IC50 on human TREX1 and on murine TREX1 were under 1 µM and 1 to 9.99 µM, respectively.

Take `CC(C)C[C@H](C(=O)NCc1ccc(F)cc1)N1CCC(CCc2ccccc2)N2C[C@H](N)C[C@H]2C1=O` (stereo partly shown) [Example 34]: the half-maximal inhibitory concentration (IC50) on human TREX1 was under 1 µM; on murine TREX1, 1 to 9.99 µM.

Take `CC(C)C[C@H](C(=O)NS(=O)(=O)c1ccccc1)N1CCC(CCc2ccccc2)N2C[C@H](N)C[C@H]2C1=O` (stereo partly shown) [Example 35]: the IC50 on human TREX1 and against murine TREX1 was 1 to 9.99 µM each time.

In the case of `CC(C)C[C@H](C(=O)NCCc1ccc(Cl)c(Cl)c1)N1CCC(CCc2ccccc2)N2C[C@H](N)C[C@H]2C1=O` (stereo partly shown) [Example 37], the IC50 against human TREX1 was under 1 µM; against murine TREX1 it was 1 to 9.99 µM.

As to `N[C@@H]1C[C@H]2C(=O)N([C@H](CCc3nsc(=O)[nH]3)C(=O)NCc3ccc(Cl)c(Cl)c3)CCC(CCc3ccccc3)N2C1` (stereo partly shown) [Example 38], the IC50 against human TREX1 and at murine TREX1 was under 1 µM each time.

With `CC(C)C[C@H](C(=O)NS(=O)(=O)c1ccc(Cl)c(Cl)c1)N1CCC(CCc2ccccc2)N2C[C@H](N)C[C@H]2C1=O` (stereo partly shown) [Example 39], the IC50 at human TREX1 and against murine TREX1 was under 1 µM throughout.

The values are drawn from patent US11306098B2, “Substituted pyrrolo[1,2-a]pyrazines and pyrrolo[1,2-a][1,4]diazepines as TREX1 inhibitors” (VENENUM BIODESIGN, LLC, priority 2019, dated 2022).
